Legend:
Cinnamate-CL = conditions: cited from earlier work
4-Chlorobenzoate-CL = conditions: cited from earlier work
bacterial CoA Ligases = conditions: literature range; cited from earlier work
Phenylacetate-CL = conditions: cited from earlier work
TycA = target: T1, TycA (Brevibacillus parabrevis, UniProt P09095); assay: CoA ligase reaction kinetics, TycA; format: biochemical, Brevibacillus brevis
T1 construct: this wild-type tycA cDNA encoding the A-, T-, and E-domains was subcloned into a pSU18 vector; made in house; host or cells: Escherichia coli BL21(DE3)
T1 sequence (P09095 with tags, fused parts or gaps): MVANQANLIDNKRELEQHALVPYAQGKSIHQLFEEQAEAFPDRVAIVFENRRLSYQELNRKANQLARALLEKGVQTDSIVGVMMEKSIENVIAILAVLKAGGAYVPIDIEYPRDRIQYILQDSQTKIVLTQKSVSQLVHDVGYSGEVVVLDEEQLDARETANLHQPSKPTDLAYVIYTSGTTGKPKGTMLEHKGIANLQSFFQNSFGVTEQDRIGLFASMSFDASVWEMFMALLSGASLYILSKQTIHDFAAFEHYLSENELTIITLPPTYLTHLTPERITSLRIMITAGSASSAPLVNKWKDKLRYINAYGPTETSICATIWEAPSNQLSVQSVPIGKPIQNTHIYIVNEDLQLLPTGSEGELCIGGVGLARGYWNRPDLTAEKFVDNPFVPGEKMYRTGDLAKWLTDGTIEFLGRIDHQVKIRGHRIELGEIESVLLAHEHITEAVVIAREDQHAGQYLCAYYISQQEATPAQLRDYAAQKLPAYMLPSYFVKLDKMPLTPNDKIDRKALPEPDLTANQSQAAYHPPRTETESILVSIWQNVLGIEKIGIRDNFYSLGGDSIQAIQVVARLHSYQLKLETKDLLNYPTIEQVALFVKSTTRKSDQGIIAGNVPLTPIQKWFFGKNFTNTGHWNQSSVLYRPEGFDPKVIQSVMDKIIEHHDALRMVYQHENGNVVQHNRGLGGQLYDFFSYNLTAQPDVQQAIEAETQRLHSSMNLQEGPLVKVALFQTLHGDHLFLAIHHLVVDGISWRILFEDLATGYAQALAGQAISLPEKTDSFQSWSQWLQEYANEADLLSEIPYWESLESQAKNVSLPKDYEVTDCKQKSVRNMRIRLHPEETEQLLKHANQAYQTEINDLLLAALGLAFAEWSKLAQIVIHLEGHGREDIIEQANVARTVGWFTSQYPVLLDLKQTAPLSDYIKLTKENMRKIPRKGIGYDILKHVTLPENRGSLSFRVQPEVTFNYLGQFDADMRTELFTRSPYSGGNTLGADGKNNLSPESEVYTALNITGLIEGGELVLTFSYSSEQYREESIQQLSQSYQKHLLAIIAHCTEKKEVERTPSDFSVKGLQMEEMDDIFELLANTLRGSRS
Method: Under steady-state conditions, (S)-α-phenylalanine, (R)-β-phenylalanine, and (2R,3S)-phenylisoserine at 5, 10, 20, 40, 80, 160, 250, 500, 1000 and 2000 μM were separately incubated with TycA or TycA-S563A (20 μg) for 30 min. At the end of each reaction, and prior to mass spectrometry analysis, acetyl CoA (1 μM) was added as the internal standard to each sample to correct for variations of the analyte. The products of the enzyme-catalyzed reaction were quantified by a liquid chromatography multiple reaction monitoring (LC-ESI-MRM) mass spectrometry technique (Anderson & Hunter, Mol. Cell. Proteomics 5: 573-588 (2006)) on the Quattro-Premier Electro-Spray Mass Spectrometer coupled with Acquity® UPLC system fitted with a C18 Ascentis Express column (2.5×50 mm, 2.7 μm) at 30° C. An aliquot (5 μL) of each sample was loaded onto the column and the analytes were eluted with a solvent gradient of acetonitrile (Solvent A) in 0.05% triethylamine in distilled water (Solvent B). Elution was held at 2.5% Solvent A for 3.17 min, increased to 100% Solvent A over 5 sec with a 2-min hold, and then returned to 2.5% Solvent A over 5 sec with a 50-sec hold. The flow rate employed was 0.4 mL/min. The effluent from the chromatography column was directed to the mass spectrometer where the first quadrupole mass analyzer (in negative ion mode) was set to select for the molecular ion of a biosynthesized acyl CoA product. The selected ion was then directed to a collision gas chamber where the collision energy was optimized to maximize the abundance of a single signature fragment ion (m/z 408, characteristic of acyl CoA thioesters) resolved in the second quadrupole mass analyzer by the MRM method. The peak area under the curve of fragment ion m/z 408 for each biosynthetic phenylpropionyl CoA thioester was converted to concentration by comparing the peak area of the same ion produced by authentic CoA (at 0.05, 0.1, 0.2, 0.4, 0.8, 1.6, 3.2, 6.4, 12.5, 25, 50, 100 μM) using linear regression analysis.
The KM values of TycA and TycA-S563A for CoA were assessed by incubating each enzyme separately with (S)-α-phenylalanine (1 mM), MgCl2 (3 mM), ATP (1 mM), and CoA at 0.05, 0.1, 0.2, 0.4, 0.8, 1.6, 3.2, 6.4, 12.8 and 25.6 mM at 31° C. for 20 min. At the end of each reaction and prior to mass spectrometry analysis, acetyl CoA (1 μM) was added as the internal standard to each sample to correct for variations of the analyte. The products of the enzyme-catalyzed reaction were quantified by LC-ESI-MRM, and the monitored fragment ion (m/z 408) derived from the CoA moiety of the thioester analytes in the effluent was quantified identically to the procedure described earlier herein.

Propionyl-CL = Propionyl-CL (Salmonella typhimurium, UniProt P55912); conditions: cited from earlier work
Benzoate-CL = conditions: cited from earlier work
[1] = test system: mutation of phenylacetate CoA Ligase; conditions: mutated enzyme; reaction to make β-Phenylpropanyl CoA; reduced from low mM; cited from earlier work
N[C@H](CC(=O)O)c1ccccc1 = assay: purified protein, by the assay type
[2] = test system: C[C@@](N)(C(=O)O)c1ccccc1; assay: purified protein, by the assay type
[3] = test system: CC(C)(COP(=O)(O)OP(=O)(O)OC[C@H]1O[C@@H](n2cnc3c(N)ncnc32)[C@H](O)[C@@H]1OP(=O)(O)O)[C@@H](O)C(=O)NCCC(=O)NCCS; assay: purified protein, by the assay type; conditions: other: TycA-S563A, CoA 1 mM, ATP 1 mM, MgCl2 3 mM, 31° C., CoA with (S)-α-Phe as cosubstrate, pH 8.0
Method: At the end of each reaction, and prior to mass spectrometry analysis, acetyl CoA (1 μM) was added as the internal standard to each sample to correct for variations of the analyte. The products of the enzyme-catalyzed reaction were quantified by a liquid chromatography multiple reaction monitoring (LC-ESI-MRM) mass spectrometry technique (Anderson & Hunter, Mol. Cell. Proteomics 5: 573-588 (2006)) on the Quattro-Premier Electro-Spray Mass Spectrometer coupled with Acquity® UPLC system fitted with a C18 Ascentis Express column (2.5×50 mm, 2.7 μm) at 30° C. An aliquot (5 μL) of each sample was loaded onto the column and the analytes were eluted with a solvent gradient of acetonitrile (Solvent A) in 0.05% triethylamine in distilled water (Solvent B). Elution was held at 2.5% Solvent A for 3.17 min, increased to 100% Solvent A over 5 sec with a 2-min hold, and then returned to 2.5% Solvent A over 5 sec with a 50-sec hold. The flow rate employed was 0.4 mL/min. The effluent from the chromatography column was directed to the mass spectrometer where the first quadrupole mass analyzer (in negative ion mode) was set to select for the molecular ion of a biosynthesized acyl CoA product. The selected ion was then directed to a collision gas chamber where the collision energy was optimized to maximize the abundance of a single signature fragment ion (m/z 408, characteristic of acyl CoA thioesters) resolved in the second quadrupole mass analyzer by the MRM method. The peak area under the curve of fragment ion m/z 408 for each biosynthetic phenylpropionyl CoA thioester was converted to concentration by comparing the peak area of the same ion produced by authentic CoA (at 0.05, 0.1, 0.2, 0.4, 0.8, 1.6, 3.2, 6.4, 12.5, 25, 50, 100 μM) using linear regression analysis. The initial velocity (vo) of (S)-α-phenylalanyl-CoA, (R)-β-phenylalanyl-CoA and (2R,3S)-phenylisoserinyl-CoA made in separate assays was plotted against substrate concentration and fit by non-linear regression to the Michaelis-Menten equation (R^2 was typically between 0.90 and 0.99) to calculate the Michaelis parameters (KM and kcat).
The KM values of TycA and TycA-S563A for CoA were assessed by incubating each enzyme separately with (S)-α-phenylalanine (1 mM), MgCl2 (3 mM), ATP (1 mM), and CoA at 0.05, 0.1, 0.2, 0.4, 0.8, 1.6, 3.2, 6.4, 12.8 and 25.6 mM at 31° C. for 20 min. At the end of each reaction and prior to mass spectrometry analysis, acetyl CoA (1 μM) was added as the internal standard to each sample to correct for variations of the analyte. The products of the enzyme-catalyzed reaction were quantified by LC-ESI-MRM, and the monitored fragment ion (m/z 408) derived from the CoA moiety of the thioester analytes in the effluent was quantified identically to the procedure described earlier herein. […]

[4] = substrate: CC(=O)NCCS; assay: N-acetylcysteamine ligase reaction kinetics, TycA; format: biochemical, Brevibacillus brevis; conditions: other: TycA with NAC; NAC with (S)-α-Phe as cosubstrate
Method: The reactions were quenched by acidification to a pH of about 2 (10% formic acid in distilled water). […] The samples were analyzed on a Quattro-Premier Electro-Spray Mass Spectrometer coupled with Acquity® UPLC system fitted with a C18 Ascentis Express column (2.5×50 mm, 2.7 μm) at 30° C. An aliquot (5 μL) of each sample was loaded onto the column and the analytes were eluted with a solvent gradient of (Solvent A) in 0.05% triethylamine in distilled water (Solvent B) (held at 2.5% Solvent A for 3.17 mM, increased to 100% A over 5 sec with a 2-min hold, and then returned to 2.5% Solvent A over 5 sec with a 50-sec hold) at a flow rate of 0.4 mL/min. In brief, the effluent from the chromatography column was directed to the Quattro Premier ESI mass spectrometer, in MRM scan mode, to quantify the biosynthetic acyl SNAC products. […] A standard curve was used to convert the peak area under the curve of the monitored fragment ion to concentration for each biosynthetic phenylpropionyl SNAC.
Authentic (5)-α-phenylalanyl, (R/S)-β-phenylalanyl- and (2R,3S)-phenylisoserinyl-SNAC were used to construct the standard curves by correlating the peak area under the curve of the monitored ion to concentration of the standard (at 0.16, 0.32, 0.64, 1.3, 2.5, 5, 10, 20, 40, 80, 160 and 320 μM) using linear regression analysis. […]

[5] = other: TycA-S563A with NAC, NAC with (S)-α-Phe as cosubstrate
[6] = other: TycA-S563A, CoA 1 mM, ATP 1 mM, MgCl2 3 mM, 31° C., CoA with (S)-α-Phe as cosubstrate, pH 8.0

Sequence of Propionyl-CL (P55912 whole entry): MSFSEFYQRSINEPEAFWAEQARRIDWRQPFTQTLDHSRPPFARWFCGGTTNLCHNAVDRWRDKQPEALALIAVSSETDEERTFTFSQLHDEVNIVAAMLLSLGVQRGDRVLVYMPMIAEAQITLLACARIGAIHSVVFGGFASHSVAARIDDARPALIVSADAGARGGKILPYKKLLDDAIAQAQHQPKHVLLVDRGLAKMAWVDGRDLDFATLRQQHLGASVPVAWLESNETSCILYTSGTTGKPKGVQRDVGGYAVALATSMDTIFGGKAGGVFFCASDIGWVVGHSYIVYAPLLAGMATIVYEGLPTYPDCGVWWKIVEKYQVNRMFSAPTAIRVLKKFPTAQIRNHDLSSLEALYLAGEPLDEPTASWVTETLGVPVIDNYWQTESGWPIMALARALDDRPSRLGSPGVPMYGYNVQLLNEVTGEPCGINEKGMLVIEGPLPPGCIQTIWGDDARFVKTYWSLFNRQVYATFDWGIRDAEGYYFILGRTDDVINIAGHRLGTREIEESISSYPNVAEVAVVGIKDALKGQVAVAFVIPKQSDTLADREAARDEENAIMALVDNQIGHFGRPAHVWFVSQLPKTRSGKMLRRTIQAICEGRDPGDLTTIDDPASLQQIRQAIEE

Question: With `O=C(O)/C=C/c1ccccc1` [Cinnamate] as the molecule, how does the Km (Cinnamate-CL) read?
Answer: 190 µM

Question: What about the kcat (Cinnamate-CL) of the same molecule?
Answer: 0.475 s⁻¹

Question: Which Km (4-Chlorobenzoate-CL) does the source give for `CC(C)(COP(=O)(O)OP(=O)(O)OC[C@H]1O[C@@H](n2cnc3c(N)ncnc32)[C@H](O)[C@@H]1OP(=O)(O)O)[C@@H](O)C(=O)NCCC(=O)NCCS` [CoA] here?
Answer: 310 µM

Question: What about the kcat (4-Chlorobenzoate-CL) of the same molecule?
Answer: 9.3 s⁻¹

Question: What about the Km (bacterial CoA Ligases) of the same molecule?
Answer: 100 to 940 µM

Question: And the Km (Phenylacetate-CL)?
Answer: 940 µM

Question: And the Km (TycA; TycA, CoA 1 mM, ATP 1 mM, MgCl2 3 mM, 31° C., CoA with (S)-α-Phe as cosubstrate)?
Answer: 1980 ± 175 µM

Question: And the “kcat^CoA” value (TycA; TycA, turnover with CoA at apparent saturation, CoA with (S)-α-Phe as cosubstrate)?
Answer: 0.0125 ± 0.00083 s⁻¹

Question: What about the “higher KM of TycA compared to that of TycA-S563A” value (TycA; dilution series of CoA with 1 mM (S)-α-Phe) of the same molecule?
Answer: ~2.5 fold

Question: What about the Km (Propionyl-CL) of the same molecule?
Answer: 215 µM

Question: And the kcat (Propionyl-CL)?
Answer: 42 s⁻¹

Question: And the Km (Benzoate-CL)?
Answer: 100 µM

Question: With `O=C(O)c1ccccc1` [benzoate] as the molecule, how does the Km (Benzoate-CL) read?
Answer: 11 µM

Question: And the kcat (Benzoate-CL)?
Answer: 26,000 min^−1

Question: Which Km (Propionyl-CL) does the source give for `CCC(=O)O` [propionate] here?
Answer: 20 µM

Question: And the kcat (Propionyl-CL)?
Answer: 33 s⁻¹

Question: For `NC(CC(=O)O)c1ccccc1` (stereo not drawn) [β-Phe], which Km [1] is on record?
Answer: 0.068 mM

Question: What does the source list for “TycA-S563A (Brevibacillus parabrevis; S563A)”?
Answer: Km (N[C@H](CC(=O)O)c1ccccc1; [5]): 58.9 ± 6.4 µM; kcat (N[C@H](CC(=O)O)c1ccccc1; [5]): 0.0004 ± 1.67e-05 s⁻¹; Km (N[C@H](CC(=O)O)c1ccccc1; [6]): 62.3 ± 1.0 µM; Km [2, 5]: 37.8 ± 1.6 µM; kcat [2, 5]: 0.003333 ± 3.33e-05 s⁻¹; Km [2, 6]: 33.9 ± 4.0 µM; Km [3]: 804 ± 26 µM; kcat [3]: 0.015 ± 0.0013 s⁻¹

B1: TycA (Brevibacillus parabrevis) (protein)
chain: MVANQANLIDNKRELEQHALVPYAQGKSIHQLFEEQAEAFPDRVAIVFENRRLSYQELNRKANQLARALLEKGVQTDSIVGVMMEKSIENVIAILAVLKAGGAYVPIDIEYPRDRIQYILQDSQTKIVLTQKSVSQLVHDVGYSGEVVVLDEEQLDARETANLHQPSKPTDLAYVIYTSGTTGKPKGTMLEHKGIANLQSFFQNSFGVTEQDRIGLFASMSFDASVWEMFMALLSGASLYILSKQTIHDFAAFEHYLSENELTIITLPPTYLTHLTPERITSLRIMITAGSASSAPLVNKWKDKLRYINAYGPTETSICATIWEAPSNQLSVQSVPIGKPIQNTHIYIVNEDLQLLPTGSEGELCIGGVGLARGYWNRPDLTAEKFVDNPFVPGEKMYRTGDLAKWLTDGTIEFLGRIDHQVKIRGHRIELGEIESVLLAHEHITEAVVIAREDQHAGQYLCAYYISQQEATPAQLRDYAAQKLPAYMLPSYFVKLDKMPLTPNDKIDRKALPEPDLTANQSQAAYHPPRTETESILVSIWQNVLGIEKIGIRDNFYSLGGDSIQAIQVVARLHSYQLKLETKDLLNYPTIEQVALFVKSTTRKSDQGIIAGNVPLTPIQKWFFGKNFTNTGHWNQSSVLYRPEGFDPKVIQSVMDKIIEHHDALRMVYQHENGNVVQHNRGLGGQLYDFFSYNLTAQPDVQQAIEAETQRLHSSMNLQEGPLVKVALFQTLHGDHLFLAIHHLVVDGISWRILFEDLATGYAQALAGQAISLPEKTDSFQSWSQWLQEYANEADLLSEIPYWESLESQAKNVSLPKDYEVTDCKQKSVRNMRIRLHPEETEQLLKHANQAYQTEINDLLLAALGLAFAEWSKLAQIVIHLEGHGREDIIEQANVARTVGWFTSQYPVLLDLKQTAPLSDYIKLTKENMRKIPRKGIGYDILKHVTLPENRGSLSFRVQPEVTFNYLGQFDADMRTELFTRSPYSGGNTLGADGKNNLSPESEVYTALNITGLIEGGELVLTFSYSSEQYREESIQQLSQSYQKHLLAIIAHCTEKKEVERTPSDFSVKGLQMEEMDDIFELLANTLRGSRS
notes: this wild-type tycA cDNA encoding the A-, T-, and E-domains was subcloned into a pSU18 vector; made in house; host or cells: Escherichia coli BL21(DE3)
Question: Which results are given for B1?
Answer: Km [4]: 153 ± 22 µM; kcat [4]: 0.0015 ± 0.000167 s⁻¹
